Assays:
[1] = biological target: T1, Human PDGFRβ, cytoplasmic domain (GST-PDGFRβ) (Homo sapiens, UniProt P09619); experiment: Human PDGFRβ biochemical inhibition assay (off-chip Mobility Shift Assay)
T1 construct: made in house
Outline: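 GST-tagged cytoplasmic domain (aa 557-1106) from baculovirus was incubated 1 h at room temperature with compound, CSKtide, ATP at Km and Mg²⁺ in HEPES buffer, pH 7.5. Phosphorylated and unphosphorylated peptide were separated by off-chip mobility shift, and the product ratio P/(P+S) gave percent inhibition.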

[2] = biological target: T2, Human PDGFRα, cytoplasmic domain (GST-PDGFRα) (Homo sapiens, UniProt P16234); experiment: Human PDGFRα biochemical inhibition assay (off-chip Mobility Shift Assay)
T2 construct: made in house
T2 sequence (P16234 550-1089 T674I): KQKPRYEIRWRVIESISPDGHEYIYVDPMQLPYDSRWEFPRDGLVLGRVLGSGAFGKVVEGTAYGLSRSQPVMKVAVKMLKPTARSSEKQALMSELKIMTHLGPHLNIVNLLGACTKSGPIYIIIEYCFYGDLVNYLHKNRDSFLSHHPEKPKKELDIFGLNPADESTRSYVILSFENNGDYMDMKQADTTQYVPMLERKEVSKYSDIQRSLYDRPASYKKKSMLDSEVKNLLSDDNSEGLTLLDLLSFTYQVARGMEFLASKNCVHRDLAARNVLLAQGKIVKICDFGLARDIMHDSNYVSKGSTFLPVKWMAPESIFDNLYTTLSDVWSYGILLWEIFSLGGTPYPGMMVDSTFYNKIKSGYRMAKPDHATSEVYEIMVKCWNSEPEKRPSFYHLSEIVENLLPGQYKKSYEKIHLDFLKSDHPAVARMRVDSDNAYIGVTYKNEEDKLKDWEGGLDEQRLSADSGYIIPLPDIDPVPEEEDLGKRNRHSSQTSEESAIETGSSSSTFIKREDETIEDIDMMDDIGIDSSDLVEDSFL

T1 sequence (P09619 with tags, fused parts or gaps): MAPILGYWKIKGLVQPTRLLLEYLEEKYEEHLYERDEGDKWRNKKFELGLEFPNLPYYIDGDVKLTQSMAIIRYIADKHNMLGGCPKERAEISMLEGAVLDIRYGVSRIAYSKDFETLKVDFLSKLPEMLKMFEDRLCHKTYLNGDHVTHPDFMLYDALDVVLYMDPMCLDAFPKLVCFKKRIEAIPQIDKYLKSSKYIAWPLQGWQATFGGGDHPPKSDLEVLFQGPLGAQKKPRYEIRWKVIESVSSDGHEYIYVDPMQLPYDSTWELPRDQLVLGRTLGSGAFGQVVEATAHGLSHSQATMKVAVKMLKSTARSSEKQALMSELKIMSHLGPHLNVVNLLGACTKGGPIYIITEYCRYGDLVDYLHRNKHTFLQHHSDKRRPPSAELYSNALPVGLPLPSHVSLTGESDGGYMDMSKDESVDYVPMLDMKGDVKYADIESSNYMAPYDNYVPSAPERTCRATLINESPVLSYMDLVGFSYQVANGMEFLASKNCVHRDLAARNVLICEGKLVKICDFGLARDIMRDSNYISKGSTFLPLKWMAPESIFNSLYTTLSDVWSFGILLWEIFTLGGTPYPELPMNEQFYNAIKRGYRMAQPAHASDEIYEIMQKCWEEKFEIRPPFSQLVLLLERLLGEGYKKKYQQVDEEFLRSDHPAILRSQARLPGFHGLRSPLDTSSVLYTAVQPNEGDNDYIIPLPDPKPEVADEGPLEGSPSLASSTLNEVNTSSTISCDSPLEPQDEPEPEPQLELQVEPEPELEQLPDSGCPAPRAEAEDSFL

IC50 [1]	IC50 [2]	SMILES
< 300 nM	< 300 nM	CCn1cc2ncc(N[C@@H](C)c3cc(NC(=O)c4cc(C)c(CN5CC[C@@H](O)C5)c(F)c4)ccc3C)nc2n1 [Compound 527, N-(3-((S)-1-((2-ethyl-2H-pvrazolo[3,4-b]pyrazin-6-yl)amino)ethyl)-4-methylphenyl)-3-fluoro-4-(((R)-3-hydroxypyrrolidin-1-yl)methyl)-5-methylbenzamide]
≥ 1000 nM	≥ 1000 nM	Cc1cncc(C(=O)Nc2cccc([C@H](C)Nc3cncc4c3c(C)nn4-c3cnn(C)c3)c2)c1 [Compound 751, (S)-5-methyl-N-(3-(1-((3-methyl-1-(1-methyl-1H-pyrazol-4-yl)-1H-pyrazolo[3,4-c]pyridin-4-yl)amino)ethyl)phenyl)nicotinamide]
< 300 nM	< 300 nM	CCn1cc2ncc(N[C@@H](C)c3cccc(NC(=O)c4ccc(CN5CC6(COC6)C5)c(C(F)F)c4)c3)nc2n1 [Compound 506, (S)-4-((2-oxa-6-azaspiro[3.3]heptan-6-yl)methyl)-3-(difluoromethyl)-N-(3-(1-((2-ethyl-2H-pyrazolo[3,4-b]pyrazin-6-yl)amino)ethyl)phenyl)benzamide]
< 300 nM	< 300 nM	CCn1cc2ncc(N[C@@H](C)c3cc(NC(=O)Cc4cc(C)c(Cl)cn4)ccc3C)nc2n1 [Compound 696, (S)-2-(5-chloro-4-methylpyridin-2-yl)-N-(3-(1-((2-ethyl-2H-pyrazolo[3,4-b]pyrazin-6-yl)amino)ethyl)-4-methylphenyl)acetamide]
< 300 nM	< 300 nM	CCn1cc2ncc(N[C@@H](C)c3cc(NC(=O)c4cc(C)c(CN5CCN(C)CC5)c(F)c4)ccc3C)nc2n1 [Compound 528, (S)-N-(3-(1-((2-ethyl-2H-pyrazolo[3,4-b]pyrazin-6-yl)amino)ethyl)-4-methylphenyl)-3-fluoro-5-methyl-4-((4-methylpiperazin-1-yl)methyl) benzamide]
≥ 1000 nM	< 300 nM	CCn1cc2ncc(N[C@@H](C)c3cccc(NC(=O)Cc4ccc(OC)c(F)c4)c3)nc2n1 [Compound 626, (S)-N-(3-(1-((2-ethyl-2H-pyrazolo[3,4-b]pyrazin-6-yl)amino)ethyl)phenyl)-2-(3-fluoro-4-methoxyphenyl) acetamide]
< 300 nM	< 300 nM	CCn1cc2ncc(N[C@@H](C)c3cccc(NC(=O)c4ccc(CN5CC[C@@H](O)C5)c(Cl)c4)c3)nc2n1 [Compound 483, 3-chloro-N-(3-((S)-1-((2-ethyl-2H-pyrazolo[3,4-b]pyrazin-6-yl)amino)ethyl)phenyl)-4-(((R)-3-hydroxypyrrolidin-1-yl)methyl) benzamide]
≥ 1000 nM	≥ 1000 nM	CCn1cc2ncc(N[C@@H](C)c3cccc(NC(=O)Cc4ccncc4)c3)nc2n1 [Compound 644, (S)-N-(3-(1-((2-ethyl-2H-pyrazolo[3,4-b]pyrazin-6-yl)amino)ethyl)phenyl)-2-(pyridin-4-yl)acetamide]
< 300 nM	< 300 nM	CCn1cc2ncc(N[C@@H](C)c3cc(NC(=O)c4cnc(N5CCN(C)CC5)c(Cl)c4)ccc3F)nc2n1 [Compound 456, (S)-5-chloro-N-(3-(1-((2-ethyl-2H-pyrazolo[3,4-b]pyrazin-6-yl)amino)ethyl)-4-fluorophenyl)-6-(4-methylpiperazin-1-yl) nicotinamide]
300 to 1000 nM	< 300 nM	CCn1cc2ncc(N[C@@H](C)c3cc(NC(=O)Cc4ccc(C(F)(F)F)cn4)ccc3C)nc2n1 [Compound 661, (S)-N-(3-(1-((2-ethyl-2H-pyrazolo[3,4-b]pyrazin-6-yl)amino)ethyl)-4-methylphenyl)-2-(5-(trifluoromethyl)pyridin-2-yl)acetamide]
< 300 nM	< 300 nM	CCn1cc2ncc(N[C@@H](C)c3cc(NC(=O)c4cnc(N5CCN(C)CC5)c(C)c4)ccc3C)nc2n1 [Compound 514, (S)-N-(3-(1-((2-ethyl-2H-pyrazolo[3,4-b]pyrazin-6-yl)amino)ethyl)-4-methylphenyl)-5-methyl-6-(4-methylpiperazin-1-yl)nicotinamide]

Second part, the molecule before the results:

SMILES	IC50 [1]	IC50 [2]
CC(C)COc1ncc(C(=O)Nc2cccc([C@H](C)Nc3cnc4cnn(C)c4n3)c2)cc1Cl [Compound 262, (S)-5-chloro-6-isobutoxy-N-(3-(1-((1-methyl-1H-pyrazolo[3,4-b]pyrazin-6-yl)amino)ethyl)phenyl)nicotinamide]	< 300 nM	< 300 nM
CCn1cc2ncc(N[C@@H](C)c3cc(NC(=O)c4cnc5c(c4)CCCO5)ccc3F)nc2n1 [Compound 59, (S)-N-(3-(1-((2-ethyl-2H-pyrazolo[3,4-b]pyrazin-6-yl)amino)ethyl)-4-fluorophenyl)-3,4-dihydro-2H-pyrano[2,3-b] pyridine-6-carboxamide]	< 300 nM	< 300 nM
CCc1ncc(C(=O)Nc2cccc([C@H](C)Nc3cnc4cn(CC)nc4n3)c2)s1 [Compound 341, (S)-2-ethyl-N-(3-(1-((2-ethyl-2H-pyrazolo[3,4-b]pyrazin-6-yl)amino)ethyl)phenyl)thiazole-5-carboxamide]	< 300 nM	< 300 nM
Cc1cncc(C(=O)Nc2cccc([C@H](C)Nc3cnc4cnn(C5CC5)c4n3)c2)c1 [Compound 177, (S)-N-(3-(1-((1-cyclopropyl-1H-pyrazolo[3,4-b]pyrazin-6-yl)amino)ethyl)phenyl)-5-methylnicotinamide]	< 300 nM	< 300 nM
CCn1cc2ncc(N[C@@H](C)c3cccc(NC(=O)c4ccc(N5CCN(C(=O)OC(C)(C)C)CC5)nc4)c3)nc2n1 [Compound 378, tert-butyl (S)-4-(5-((3-(1-((2-ethyl-2H-pyrazolo[3,4-b]pyrazin-6-yl)amino)ethyl)phenyl)carbamoyl)pyridin-2-yl) piperazine-1-carboxylate]	300 to 1000 nM	< 300 nM
CCn1cc2ncc(N[C@@H](C)c3cccc(NC(=O)c4ccc(NC)nc4)c3)nc2n1 [Compound 393, (S)-N-(3-(1-((2-ethyl-2H-pyrazolo[3,4-b]pyrazin-6-yl)amino)ethyl)phenyl)-6-(methylamino)nicotinamide]	≥ 1000 nM	300 to 1000 nM
Cc1cncc(C(=O)Nc2cccc([C@H](C)Nc3cnc4cnn(C)c4c3)c2)c1 [Compound 89, (S)-5-methyl-N-(3-(1-((1-methyl-1H-pyrazolo[4,3-b]pyridin-6-yl)amino)ethyl)phenyl)nicotinamide]	300 to 1000 nM	< 300 nM
C[C@H](Nc1cnc2cnn(C)c2n1)c1cccc(NC(=O)c2ccc(Cl)c(F)c2)c1 [Compound 191, (S)-4-chloro-3-fluoro-N-(3-(1-((1-methyl-1H-pyrazolo[3,4-b]pyrazin-6-yl)amino)ethyl)phenyl)benzamide]	< 300 nM	< 300 nM
CCn1cc2ncc(N[C@@H](C)c3cccc(NC(=O)c4cnc5[nH]ncc5c4)c3)nc2n1 [Compound 60, (S)-N-(3-(1-((2-ethyl-2H-pyrazolo[3,4-b]pyrazin-6-yl)amino)ethyl)phenyl)-1H-pyrazolo[3,4-b]pyridine-5-carboxamide]	≥ 1000 nM	≥ 1000 nM
CCn1cc2ncc(N[C@@H](C)c3cccc(NC(=O)c4cc(Cl)c(Cl)s4)c3)nc2n1 [Compound 357, (S)-4,5-dichloro-N-(3-(1-((2-ethyl-2H-pyrazolo[3,4-b]pyrazin-6-yl)amino)ethyl)phenyl)thiophene-2-carboxamide]	< 300 nM	< 300 nM
C[C@H](Nc1cnc2cn[nH]c2n1)c1cccc(NC(=O)c2cncc(C3CC3)c2)c1 [Compound 93, (S)-N-(3-(1-((1H-pyrazolo[3,4-b]pyrazin-6-yl)amino)ethyl)phenyl)-5-cyclopropylnicotinamide]	< 300 nM	< 300 nM
C[C@H](Nc1cnc2cnn(C)c2n1)c1cccc(NC(=O)c2cnccc2F)c1 [Compound 131, (S)-4-fluoro-N-(3-(1-((1-methyl-1H-pyrazolo[3,4-b]pyrazin-6-yl)amino)ethyl)phenyl) nicotinamide]	≥ 1000 nM	300 to 1000 nM
CSc1ccc(C(=O)Nc2cccc([C@H](C)Nc3cnc4cnn(C)c4n3)c2)cc1 [Compound 219, (S)-N-(3-(1-((1-methyl-1H-pyrazolo[3,4-b]pyrazin-6-yl)amino)ethyl)phenyl)-4-(methylthio)benzamide]	< 300 nM	< 300 nM
CCn1nc(C(=O)Nc2cccc([C@H](C)Nc3cnc4cnn(C)c4n3)c2)cc1C(C)C [Compound 163, (S)-1-ethyl-5-isopropyl-N-(3-(1-((1-methyl-1H-pyrazolo[3,4-b]pyrazin-6-yl)amino)ethyl)phenyl)-1H-pyrazole-3-carboxamide]	< 300 nM	< 300 nM
CCn1cc2ncc(N[C@@H](C)c3cccc(NC(=O)c4cnc(C5CCCC5)s4)c3)nc2n1 [Compound 398, (S)-2-cyclopentyl-N-(3-(1-((2-ethyl-2H-pyrazolo[3,4-b]pyrazin-6-yl)amino)ethyl)phenyl)thiazole-5-carboxamide]	< 300 nM	< 300 nM
CSc1ccc(C(=O)Nc2cccc([C@H](C)Nc3cnc4cnn(C)c4n3)c2)cc1C [Compound 222, (S)-3-methyl-N-(3-(1-((1-methyl-1H-pyrazolo[3,4-b]pyrazin-6-yl)amino)ethyl)phenyl)-4-(methylthio)benzamide]	< 300 nM	< 300 nM
C[C@H](Nc1cnc2cnn(C)c2n1)c1cccc(NC(=O)c2ccc(S(C)(=O)=O)nc2)c1 [Compound 221, (S)-N-(3-(1-((1-methyl-1H-pyrazolo[3,4-b]pyrazin-6-yl)amino)ethyl)phenyl)-6-(methylsulfonyl)nicotinamide]	< 300 nM	< 300 nM
C[C@H](Nc1cnc2cnn(C)c2n1)c1cccc(NC(=O)c2cncc(S(C)(=O)=O)c2)c1 [Compound 227, (S)-N-(3-(1-((1-methyl-1H-pyrazolo[3,4-b]pyrazin-6-yl)amino)ethyl)phenyl)-5-(methylsulfonyl)nicotinamide]	< 300 nM	< 300 nM

Reference: patent US20230102554A1 (GB002, INC., priority 2019, published 2023)
